Laboratory results taken from patent US10513521B2, “Compositions and methods for inhibiting BMP” (The Brigham and Women's Hospital, Inc., priority 2014, dated 2019).
Substitutions are numbered along the chain they refer to. “And” between values parts separate entries of the source, which are not always exact repeats. Equal entries are not always repeated. Where two headings read alike, the source gives them in different places.

How the values were obtained:
ALK2 [1] = molecular target: T1, ALK2 (Mus musculus, UniProt P37172); assay: HTRF pSMAD1 cell-based ALK2 assay (C2C12 cells, BMP6 as agonist)
T1 construct: The C2C12 cell line was selected for the measurement of ALK2 activity using BMP6 as the agonist; host or cells: C2C12
T1 sequence (P37172 21-509): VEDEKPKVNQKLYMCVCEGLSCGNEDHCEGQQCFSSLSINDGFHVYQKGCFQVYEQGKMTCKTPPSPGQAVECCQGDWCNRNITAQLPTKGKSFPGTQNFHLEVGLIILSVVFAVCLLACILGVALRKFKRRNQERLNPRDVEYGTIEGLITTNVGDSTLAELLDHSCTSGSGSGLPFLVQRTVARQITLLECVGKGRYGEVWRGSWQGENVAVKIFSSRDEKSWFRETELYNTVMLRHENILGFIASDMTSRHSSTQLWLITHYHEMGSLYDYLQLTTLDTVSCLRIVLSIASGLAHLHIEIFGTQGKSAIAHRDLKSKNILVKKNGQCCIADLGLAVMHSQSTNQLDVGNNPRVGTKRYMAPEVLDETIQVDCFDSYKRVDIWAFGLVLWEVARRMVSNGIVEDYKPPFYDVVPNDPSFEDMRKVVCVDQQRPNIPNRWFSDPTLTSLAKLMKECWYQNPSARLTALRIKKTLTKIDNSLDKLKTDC
How it was run: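 Phospho-SMAD1 HTRF readout, detection incubated overnight at room temperature. Before that: starved cells in 0.1% FBS for 4 h, 30 min compound pretreatment, then 30 min agonist, BMP6 on C2C12 or BMP9 on BAOEC.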

ALK5 = molecular target: T2, ALK5 (Homo sapiens, UniProt P36897); assay: TR-FRET enzymatic ALK kinase assay, ALK5
T2 sequence (P36897 34-503): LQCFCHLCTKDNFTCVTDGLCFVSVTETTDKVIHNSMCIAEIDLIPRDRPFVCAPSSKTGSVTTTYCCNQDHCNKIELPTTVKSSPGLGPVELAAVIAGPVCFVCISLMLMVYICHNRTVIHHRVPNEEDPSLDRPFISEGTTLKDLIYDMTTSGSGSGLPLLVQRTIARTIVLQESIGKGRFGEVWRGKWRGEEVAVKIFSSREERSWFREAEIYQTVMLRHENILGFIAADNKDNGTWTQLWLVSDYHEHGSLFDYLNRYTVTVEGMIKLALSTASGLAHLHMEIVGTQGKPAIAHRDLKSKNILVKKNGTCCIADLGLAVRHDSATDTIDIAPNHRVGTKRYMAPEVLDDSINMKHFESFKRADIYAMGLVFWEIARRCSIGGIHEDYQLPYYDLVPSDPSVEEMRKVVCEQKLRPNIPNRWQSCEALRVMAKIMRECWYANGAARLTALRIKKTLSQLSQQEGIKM
Experimental: Six ALK kinase enzyme assays were developed for determination of compound activities on ALK1, ALK2, ALK3, ALK4, ALK5 and ALK6.
(§1) Briefly, the ALKs enzymatic assay was initiated by dispense 2.5 μl enzyme in 1× kinase reaction buffer. The assay plate was then added with compounds followed by incubation at room temperature for 10 minutes. Then 2.5 μl/well substrate was added.

ALK2 [2] = molecular target: T3, ALK2 (Homo sapiens, UniProt Q04771); assay: TR-FRET enzymatic ALK kinase assay, ALK2
T3 sequence (Q04771 21-509): T1 sequence (P37172 21-509) with V1M, Q10P, I121L, E162D, S310P
Experimental: as §1

ALK3 = ALK3 (Homo sapiens, UniProt P36894); assay: TR-FRET enzymatic ALK kinase assay, ALK3
Sequence of ALK3 (P36894 24-532): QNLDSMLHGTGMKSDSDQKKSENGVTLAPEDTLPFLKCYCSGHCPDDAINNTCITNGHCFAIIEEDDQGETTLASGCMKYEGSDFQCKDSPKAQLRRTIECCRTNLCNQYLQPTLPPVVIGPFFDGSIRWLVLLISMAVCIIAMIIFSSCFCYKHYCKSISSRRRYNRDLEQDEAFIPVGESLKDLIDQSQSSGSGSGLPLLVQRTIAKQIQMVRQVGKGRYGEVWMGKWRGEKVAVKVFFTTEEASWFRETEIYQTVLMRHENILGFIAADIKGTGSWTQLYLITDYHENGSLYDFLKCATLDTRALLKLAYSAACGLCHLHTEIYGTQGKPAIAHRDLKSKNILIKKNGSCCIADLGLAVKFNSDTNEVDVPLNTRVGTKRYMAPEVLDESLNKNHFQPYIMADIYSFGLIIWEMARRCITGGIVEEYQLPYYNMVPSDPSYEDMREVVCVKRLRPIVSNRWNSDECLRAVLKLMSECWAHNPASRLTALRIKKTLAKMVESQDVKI
Experimental: as §1

[3] = HTRF assay, BMP6 as agonist, C2C12 cells, read-out: BMP6 HTRF
[4] = cell-based assay, BMP6, read-out: Cell IC50 BMP6

SMILES	IC50 (ALK2 [1]; [3])	IC50 (ALK2 [1]; [4])	IC50 (ALK5)	IC50 (ALK2 [2])	IC50 (ALK3)
C[C@@H]1CNC[C@H](C)N1c1ccc(-c2cnc3c(-c4cccc5c(C(N)=O)cccc45)cnn3c2)cc1 [Compound 10, 5-(6-(4-((2S,6R)-2,6-dimethylpiperazin-1-yl)phenyl)pyrazolo[1,5-a]pyrimidin-3-yl)-1-naphthamide]	19 nM	4 nM	9290 nM	8 nM	18 nM
N/C(=N/O)c1ccc(-c2cnn3cc(-c4ccc(N5CCNCC5)cc4)cnc23)c2ccccc12 [Compound 15, N′-hydroxy-4-(6-(4-(piperazin-1-yl)phenyl)pyrazolo[1,5-a]pyrimidin-3-yl)-1-naphthimidamide]		170 nM	17500 nM	43 nM	1340 nM
CC(C)(CN1CCCCC1)Oc1ccc(-c2cnc3c(-c4cccc5c(C(N)=O)cccc45)cnn3c2)cc1 [Compound 18, 5-(6-(4-((2-methyl-1-(piperidin-1-yl)propan-2-yl)oxy)phenyl)pyrazolo[1,5-a]pyrimidin-3-yl)-1-naphthamide]		11 nM	13500 nM	5 nM	35 nM
NS(=O)(=O)c1ccc(-c2cnn3cc(-c4ccc(CCN5CCCCC5)cc4)cnc23)c2ccccc12 [Compound 54, 4-(6-(4-(2-(piperidin-1-yl)ethyl)phenyl)pyrazolo[1,5-a]pyrimidin-3-yl)naphthalene-1-sulfonamide]		160 nM	> 10000 nM	94 nM	> 10000 nM
C[C@@H]1CNC[C@H](C)N1c1ccc(-c2cnc3c(-c4cccc(S(C)(=O)=O)c4)cnn3c2)cc1 [Compound 82, 6-(4-((2R,6S)-2,6-dimethylpiperazin-1-yl)phenyl)-3-(3-(methylsulfonyl)phenyl)pyrazolo[1,5-a]pyrimidine]	308 nM	1 nM	> 10000 nM	12 nM	540 nM
CC(O)c1cccc(-c2cnn3cc(-c4ccc(N5[C@H](C)CNC[C@@H]5C)cc4)cnc23)c1 (stereo partly drawn) [Compound 83, 1-(3-(6-(4-((2R,6S)-2,6-dimethylpiperazin-1-yl)phenyl)pyrazolo[5-a]pyrimidin-3-yl)phenyl)ethanol]		35 nM	> 10000 nM	12 nM	520 nM
C[S+](=O)([O-])c1cccc(-c2cnn3cc(-c4ccc(OC5(CN6CCCCC6)COC5)cc4)cnc23)c1 [Compound 93, 3-(3-(methylsulfonyl)phenyl)-6-(4-((3-(piperidin-1-ylmethyl)oxetan-3-yl)oxy)phenyl)pyrazolo[1,5-a]pyrimidine]	230 nM	11 nM	> 10000 nM	29 nM	1500 nM
C[C@@H]1CNC[C@H](C)N1c1ccc(-c2cnc3c(-c4cccc(C(C)(C)O)c4)cnn3c2)cc1 [Compound 103, 2-(3-(6-(4-((2R,6S)-2,6-dimethylpiperazin-1-yl)phenyl)pyrazolo[1,5-a]pyrimidin-3-yl)phenyl)propan-2-ol]	260 nM	18 nM	> 10000 nM	13 nM	310 nM
CC[S+](=O)([O-])c1cccc(-c2cnn3cc(-c4ccc(N5[C@H](C)CNC[C@@H]5C)cc4)cnc23)c1 [Compound 104, 6-(4-((2R,6S)-2,6-dimethylpiperazin-1-yl)phenyl)-3-(3-(ethylsulfonyl)phenyl)pyrazolo[1,5-a]pyrimidine]	170 nM	1.3 nM	> 10000 nM	14 nM	510 nM
C[S+](=O)([O-])c1cccc(-c2cnn3cc(-c4ccc(OC5(Cn6ccnc6)COC5)cc4)cnc23)c1 [Compound 105, 6-(4-((3-((1H-imidazol-1-yl)methyl)oxetan-3-yl)oxy)phenyl)-3-(3-(methylsulfonyl)phenyl)pyrazolo[1,5-a]pyrimidine]	350 nM	< 1 nM	> 10000 nM	95 nM	> 10000 nM
CS(=O)(=O)c1cccc(-c2cnn3cc(-c4ccc(OCCN5CCCC5)cc4)cnc23)c1 [Compound 108, 3-(3-(methylsulfonyl)phenyl)-6-(4-(2-(pyrrolidin-1-yl)ethoxy)phenyl)pyrazolo[1,5-a]pyrimidine]		185 nM	> 10000 nM	83 nM	2600 nM
C[S+](=O)([O-])c1cccc(-c2cnn3cc(-c4ccc(OCCN5CCCCC5)cc4)cnc23)c1 [Compound 109]		2 nM	> 10000 nM	95 nM	1500 nM
C[C@@H]1CNC[C@H](C)N1c1ccc(-c2cnc3c(-c4cccc([S+](=O)([O-])C5CC5)c4)cnn3c2)cc1 [Compound 111, 3-(3-(cyclopropylsulfonyl)phenyl)-6-(4-((2R,6S)-2,6-dimethylpiperazin-1-yl)phenyl)pyrazolo[1,5-a]pyrimidine]		< 1 nM	> 10000 nM	17 nM	970 nM
CC(C)S(=O)(=O)c1cccc(-c2cnn3cc(-c4ccc(CCN5CCCCC5)cc4)cnc23)c1 [Compound 113, 3-(3-(isopropylsulfonyl)phenyl)-6-(4-(2-(piperidin-1-yl)ethyl)phenyl)pyrazolo[1,5-a]pyrimidine]		4.6 nM	> 10000 nM	94 nM	4600 nM
CC(C)S(=O)(=O)c1cccc(-c2cnn3cc(-c4ccc(N5[C@H](C)CNC[C@@H]5C)cc4)cnc23)c1 [Compound 114, 6-(4-((2R,6S)-2,6-dimethylpiperazin-1-yl)phenyl)-3-(3-(isopropylsulfonyl)phenyl)pyrazolo[1,5-a]pyrimidine]		< 1 nM	> 10000 nM	32 nM	1100 nM
CC1(c2ccc(-c3cnc4c(-c5cccc(S(C)(=O)=O)c5)cnn4c3)cc2)CCNCC1 [Compound 115, 6-(4-(4-methylpiperidin-4-yl)phenyl)-3-(3-(methylsulfonyl)phenyl)pyrazolo[1,5-a]pyrimidine]		11 nM	> 10000 nM	33 nM	1700 nM
C[C@@H]1CNC[C@H](C)N1c1ccc(-c2cnc3c(-c4cccc(C[S+](C)(=O)[O-])c4)cnn3c2)cc1 [Compound 117, 6-(4-((2R,6S)-2,6-dimethylpiperazin-1-yl)phenyl)-3-(3-((methylsulfonyl)methyl)phenyl)pyrazolo[1,5-a]pyrimidine]		66 nM	> 10000 nM	49 nM	3400 nM
CS(=O)(=O)c1cccc(-c2cnn3cc(-c4ccc(CN5CCCCC5)cc4)cnc23)c1 [Compound 123, 3-(3-(methylsulfonyl)phenyl)-6-(4-(piperidin-1-ylmethyl)phenyl)pyrazolo[1,5-a]pyrimidine]	150 nM and 130 nM	2.4 nM	> 10000 nM	56 nM	> 10000 nM
CC(O)c1cccc(-c2cnn3cc(-c4ccc(OC5(CN6CCCCC6)CC5)cc4)cnc23)c1 (centres unmarked) [Compound 143, 1-(3-(6-(4-(1-(piperidin-1-ylmethyl)cyclopropoxy)phenyl)pyrazolo[1,5-a]pyrimidin-3-yl)phenyl)ethanol]	230 nM		> 10000 nM	47 nM	1400 nM
